Measurements from PubChem BioAssay (NCI).
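Exposure lasted 48 hours, with cells grown in 96-well plates and compounds tested at five concentrations. GI50 marks 50% less growth. The concentration for full growth arrest is given as TGI.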

What was measured:
Assay in all cases: NCI anticancer screen, dose series, 48 h
DU-145 prostate = system: DU-145 prostate
HL-60(TB) leukemia = system: HL-60(TB) leukemia
HOP-92 NSCLC = system: HOP-92 NSCLC
RPMI-8226 leukemia = system: RPMI-8226 leukemia
SK-MEL-28 melanoma = system: SK-MEL-28 melanoma
SR leukemia = system: SR leukemia
SW-620 colon = system: SW-620 colon
T-47D breast = system: T-47D breast
TK-10 renal = system: TK-10 renal
UACC-62 melanoma = system: UACC-62 melanoma

| Structure (SMILES) | TGI (DU-145 prostate) [µM] | TGI (HL-60(TB) leukemia) [µM] | TGI (HOP-92 NSCLC) [µM] | TGI (RPMI-8226 leukemia) [µM] | TGI (SK-MEL-28 melanoma) [µM] | TGI (SR leukemia) [µM] | TGI (SW-620 colon) [µM] | TGI (T-47D breast) [µM] | TGI (TK-10 renal) [µM] | TGI (UACC-62 melanoma) [µM] | GI50 (DU-145 prostate) [µM] | GI50 (HL-60(TB) leukemia) [µM] | GI50 (HOP-92 NSCLC) [µM] | GI50 (SK-MEL-28 melanoma) [µM] | GI50 (SW-620 colon) [µM] | GI50 (UACC-62 melanoma) [µM] | GI50 (SR leukemia) [µM] | GI50 (T-47D breast) [µM] | GI50 (TK-10 renal) [µM] | GI50 (RPMI-8226 leukemia) [µM] |
| --- | --- | --- | --- | --- | --- | --- | --- | --- | --- | --- | --- | --- | --- | --- | --- | --- | --- | --- | --- | --- |
| S=C1N(c2ccc(Cl)cc2)C2=C(N=Nc3ccccc3)C(=Nc3ccccc3S2)N1c1ccccn1 | 27.8 | 28.1 | 49.6 | 43.6 | 29.4 | 29.2 | 34.9 | 0.899 | 28 | – | – | – | – | – | – | – | – | – | – | – |
| N#C/C=C1\C=CC(O)C(O)C1OC1OC(CO)C(O)C(O)C1O (stereo unspecified) | > 100 | > 100 | > 100 | > 100 | > 100 | – | > 100 | > 100 | > 100 | > 100 | – | – | – | – | – | – | – | – | – | – |
| O=S(=O)(O)c1c(N=Nc2c(O)ccc3ccccc23)ccc2ccccc12 | > 100 | – | > 100 | > 100 | > 100 | > 100 | > 100 | > 100 | > 100 | > 100 | – | – | – | – | – | – | – | – | – | – |
| O=S(O)c1cc(Cl)cc(Cl)c1O | – | > 100 | – | – | > 100 | – | – | – | > 100 | > 100 | – | – | – | – | – | – | – | – | – | – |
| CN(C)Cc1ccc(C(=O)Nc2ccc3ncnc(Nc4ccc(Oc5cccc(F)c5)c(Cl)c4)c3c2)cc1 | 2.91 | 3.7 | 2.44 | – | 3.09 | – | 3.31 | – | – | 3.23 | 1.55 | 1.91 | 1.09 | 1.68 | 1.76 | 1.77 | – | – | – | – |
| S=C(Nc1ccc(Cl)cc1)Nc1ccc(Cl)cc1 (tested in a mixture with another compound) | > 100 | 4.98 | 4.56 | – | 25.5 | 5.74 | 13.8 | 23.9 | 5.9 | 4.28 | 4.87 | 1.98 | 1.55 | 3.46 | 2.99 | 1.75 | 2.38 | 3.75 | 2.24 | – |
| CC(=O)OCC1OC(O[C@@H]2c3c(O)c4c(c(O)c3C3=C(NN(c5ccc([N+](=O)[O-])cc5[N+](=O)[O-])[Se]3=O)[C@@]2(C)O)C(=O)c2ccccc2C4=O)C(OC(C)=O)C(OC(C)=O)C1OC(C)=O (stereo partly specified) | 1.84 | – | 2.05 | 0.372 | 1.02 | 0.502 | 0.339 | 1.46 | 2.05 | 0.936 | – | – | – | – | – | – | – | – | – | – |
| Fc1ccc(-c2ccc(-c3nnc(-c4cc(F)c(Cl)cc4Cl)o3)o2)cc1Cl | > 100 | > 100 | > 100 | 72.9 | 68.2 | > 100 | 98.3 | 45.1 | > 100 | 51.2 | 29.5 | > 100 | 38.5 | 24.9 | 31.9 | 17.6 | 68.5 | 13.7 | 27.2 | 26.4 |
| O=C(/C=C/c1ccc(O)cc1)NCCc1ccc(O)cc1 | > 12.5 | > 12.5 | > 12.5 | > 12.5 | > 12.5 | > 12.5 | > 12.5 | > 12.5 | > 12.5 | > 12.5 | – | – | – | – | – | – | – | – | – | – |
| CC(O)C(O)C(N)CC=O (stereo unspecified) | – | > 500 | > 500 | > 500 | > 500 | – | > 185 | – | – | > 500 | – | – | – | – | – | – | – | – | – | – |
| COc1ccc(SC(C)(SC)c2ccccn2)c(OC)n1 (stereo unspecified) | > 100 | 28.3 | > 100 | 73.4 | > 100 | > 100 | > 100 | – | > 100 | > 100 | – | – | – | – | – | – | – | – | – | – |
| COc1cccc(-c2nc3c(C(=O)NCCN(C)C)cccc3[nH]2)c1 | – | 41.2 | 46.7 | 46.3 | 31.4 | – | > 54.6 | – | – | 31.8 | – | – | – | – | – | – | – | – | – | – |
| Nc1nc(SCc2ccccc2)c2ncn(Cc3ccccc3)c2n1 | > 100 | > 100 | > 100 | > 100 | > 100 | > 100 | > 100 | > 100 | > 100 | > 100 | – | – | – | – | – | – | – | – | – | – |
| C[N+]1(C)CCC(C#N)(c2ccccc2)CC1 | > 100 | > 100 | > 100 | > 100 | > 100 | > 100 | > 100 | > 100 | > 100 | – | – | – | – | – | – | – | – | – | – | – |
| O=S(=O)(c1ccc(I)cc1)N(c1ccccc1)S(=O)(=O)C(F)(F)C(F)(F)C(F)(F)C(F)(F)F | > 100 | > 100 | 42 | > 100 | > 100 | > 100 | > 100 | > 100 | 73.5 | > 100 | – | – | – | – | – | – | – | – | – | – |
| [C-]#[O+].[C-]#[O+].[Ir].[O-]c1cccc2cccnc12 | – | – | – | – | > 100 | > 100 | > 100 | – | > 100 | > 100 | – | – | – | > 100 | > 100 | > 100 | – | – | > 100 | – |
| C=C1C(=O)OC2C1C(OC(=O)/C(C)=C/C)CC1(C)C(=O)CCC(=C)C21 (stereo unspecified) | 24.2 | – | 19.9 | 7.97 | > 42.8 | > 28 | 23.4 | 43.3 | 25.7 | 23.5 | – | – | – | – | – | – | – | – | – | – |
| CC1(C)COC(/C=C/C2=NC(C)(C)CO2)=N1 | 44.1 | 49.4 | 84.1 | 26.2 | 38.1 | 27.3 | 26.9 | 34 | 27.2 | 31.4 | – | – | – | – | – | – | – | – | – | – |
| O=C1c2ccccc2-c2ccc(N=[N+]([O-])c3ccc4c(c3)C(=O)c3ccccc3-4)cc21 | > 100 | > 100 | > 100 | > 100 | > 100 | – | > 100 | > 100 | > 100 | > 100 | – | – | – | – | – | – | – | – | – | – |
| O=C(O)C1CC(c2ccccc2)=NN1c1ccccc1 (stereo unspecified) | > 100 | > 100 | > 100 | > 100 | > 100 | – | > 100 | > 100 | > 100 | > 100 | – | – | – | – | – | – | – | – | – | – |
